# Assay results as given in ChEMBL document CHEMBL1221216, “Chemical probes for histone-modifying enzymes” (Nat Chem Biol, 2008).
# What was measured:
# [1] = biological target: T1, NAD-dependent protein deacetylase sirtuin-2 (Homo sapiens, UniProt Q8IXJ6); assay: Activation of human SirT2 protein fluorescence polarization assay
# T1 sequence (Q8IXJ6 whole entry): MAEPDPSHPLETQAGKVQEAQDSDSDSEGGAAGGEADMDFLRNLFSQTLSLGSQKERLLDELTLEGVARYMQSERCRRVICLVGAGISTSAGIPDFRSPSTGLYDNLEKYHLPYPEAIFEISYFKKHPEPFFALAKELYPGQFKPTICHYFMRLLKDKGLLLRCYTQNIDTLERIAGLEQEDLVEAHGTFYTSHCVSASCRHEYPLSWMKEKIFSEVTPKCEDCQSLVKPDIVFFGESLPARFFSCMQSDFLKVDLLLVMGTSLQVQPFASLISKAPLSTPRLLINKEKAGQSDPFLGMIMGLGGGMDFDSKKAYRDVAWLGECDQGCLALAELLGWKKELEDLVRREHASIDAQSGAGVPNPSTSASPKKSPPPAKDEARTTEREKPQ
# [2] = Inhibition of histone methyltransferase SU(VAR)3-9
EC50 [1] [µM],Structure (SMILES),IC50 [2] [µM]
0.16,O=C(Nc1ccccc1-c1cn2c(CN3CCNCC3)csc2n1)c1cnc2ccccc2n1,
,CN1C(=O)[C@@]23C[C@]4([C@]56C[C@@]78SS[C@@](CO)(C(=O)N7[C@H]5Nc5ccccc56)N(C)C8=O)c5ccccc5N[C@@H]4N2C(=O)[C@]1(CO)SS3 [CHAETOCIN],0.6
